Key:
Format in all cases: biochemical
EGFR WT = EGFR WT (Homo sapiens (Human), UniProt P00533); test: HotSpot radiometric kinase assay (Reaction Biology), EGFR WT; conditions: 10 μM ATP
Summary of the method: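 Enzyme and substrate pairs were exposed to inhibitor for roughly 20 min before radiolabelled ATP (10 μM final) was introduced; the reaction proceeded 120 min at ambient temperature in pH 7.5 buffer with 1% DMSO, and phosphorylated product was captured on P81 filters for IC50 determination.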

EGFR (D770_N771insNPG) = EGFR (D770_N771insNPG) (Homo sapiens (Human), UniProt P00533, INS770NPG); test: HotSpot radiometric kinase assay, EGFR (D770_N771insNPG); conditions: 10 μM ATP, read-out: EGFR (Δ770_N771insNPG) IC50
Chain of EGFR (D770_N771insNPG) (P00533 other isoform, or with tags, fused parts or gaps del 1-668/ins NPG behind 770 limits assumed): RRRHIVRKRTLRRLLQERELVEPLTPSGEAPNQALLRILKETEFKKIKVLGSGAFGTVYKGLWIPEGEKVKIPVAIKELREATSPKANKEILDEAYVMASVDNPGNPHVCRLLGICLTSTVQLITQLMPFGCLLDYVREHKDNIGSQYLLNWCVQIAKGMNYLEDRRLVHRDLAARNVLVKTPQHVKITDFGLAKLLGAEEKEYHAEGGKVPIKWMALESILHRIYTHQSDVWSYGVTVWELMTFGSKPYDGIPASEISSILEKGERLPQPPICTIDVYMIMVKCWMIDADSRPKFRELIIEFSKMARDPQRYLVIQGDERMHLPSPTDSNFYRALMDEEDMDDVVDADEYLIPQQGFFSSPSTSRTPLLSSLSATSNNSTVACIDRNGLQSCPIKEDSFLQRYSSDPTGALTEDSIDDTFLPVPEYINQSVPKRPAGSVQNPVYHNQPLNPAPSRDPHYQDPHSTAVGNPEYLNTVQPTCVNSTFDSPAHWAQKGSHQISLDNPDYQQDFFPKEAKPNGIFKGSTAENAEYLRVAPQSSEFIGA
Summary of the method: (§1)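 IC50 values come from curve fits of ^33P incorporation captured on P81 filters after acid washing. Kinase reactions ran 120 min at room temperature with 10 μM ATP, added about 20 min after compound. Buffer was Hepes pH 7.5 containing Mg, DTT and 1% DMSO.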

EGFR Δ746-750 mutant = EGFR Δ746-750 mutant (Homo sapiens (Human), UniProt P00533, DEL746-750); test: HotSpot radiometric kinase assay, EGFR Δ746-750 mutant; conditions: 10 μM ATP
Chain of EGFR Δ746-750 mutant (P00533 other isoform, or with tags, fused parts or gaps del 1-668/del 746-750 limits assumed): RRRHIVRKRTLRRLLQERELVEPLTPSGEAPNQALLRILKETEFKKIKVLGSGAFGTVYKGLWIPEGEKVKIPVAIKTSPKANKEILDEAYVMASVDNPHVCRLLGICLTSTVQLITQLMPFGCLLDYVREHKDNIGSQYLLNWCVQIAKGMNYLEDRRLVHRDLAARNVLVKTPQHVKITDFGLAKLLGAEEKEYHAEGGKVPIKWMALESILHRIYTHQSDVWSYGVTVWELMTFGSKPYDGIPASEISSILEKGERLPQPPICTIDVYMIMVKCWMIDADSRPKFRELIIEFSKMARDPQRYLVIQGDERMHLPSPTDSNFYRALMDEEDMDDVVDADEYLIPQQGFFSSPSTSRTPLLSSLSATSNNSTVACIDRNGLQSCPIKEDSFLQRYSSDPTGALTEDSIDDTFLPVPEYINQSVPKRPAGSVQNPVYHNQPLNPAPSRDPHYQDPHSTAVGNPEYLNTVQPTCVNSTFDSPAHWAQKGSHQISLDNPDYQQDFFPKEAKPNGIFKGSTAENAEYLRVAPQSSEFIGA
Summary of the method: as §1

[1] = target: EGFR Δ746-750/C797S mutant (Homo sapiens (Human), UniProt P00533, C797S/DEL746-750); test: HotSpot radiometric kinase assay, EGFR Δ746-750/C797S mutant; conditions: 10 μM ATP
Summary of the method: as §1

EGFR L858R mutant = EGFR L858R mutant (Homo sapiens (Human), UniProt P00533, L858R); test: HotSpot radiometric kinase assay, EGFR L858R mutant; conditions: 10 μM ATP
Summary of the method: as §1

EGFR L858R/T790M mutant = EGFR L858R/T790M mutant (Homo sapiens (Human), UniProt P00533, L858R/T790M); test: HotSpot radiometric kinase assay, EGFR L858R/T790M mutant; conditions: 10 μM ATP
Chain of EGFR L858R/T790M mutant (P00533 25-1210 T790M/L858R): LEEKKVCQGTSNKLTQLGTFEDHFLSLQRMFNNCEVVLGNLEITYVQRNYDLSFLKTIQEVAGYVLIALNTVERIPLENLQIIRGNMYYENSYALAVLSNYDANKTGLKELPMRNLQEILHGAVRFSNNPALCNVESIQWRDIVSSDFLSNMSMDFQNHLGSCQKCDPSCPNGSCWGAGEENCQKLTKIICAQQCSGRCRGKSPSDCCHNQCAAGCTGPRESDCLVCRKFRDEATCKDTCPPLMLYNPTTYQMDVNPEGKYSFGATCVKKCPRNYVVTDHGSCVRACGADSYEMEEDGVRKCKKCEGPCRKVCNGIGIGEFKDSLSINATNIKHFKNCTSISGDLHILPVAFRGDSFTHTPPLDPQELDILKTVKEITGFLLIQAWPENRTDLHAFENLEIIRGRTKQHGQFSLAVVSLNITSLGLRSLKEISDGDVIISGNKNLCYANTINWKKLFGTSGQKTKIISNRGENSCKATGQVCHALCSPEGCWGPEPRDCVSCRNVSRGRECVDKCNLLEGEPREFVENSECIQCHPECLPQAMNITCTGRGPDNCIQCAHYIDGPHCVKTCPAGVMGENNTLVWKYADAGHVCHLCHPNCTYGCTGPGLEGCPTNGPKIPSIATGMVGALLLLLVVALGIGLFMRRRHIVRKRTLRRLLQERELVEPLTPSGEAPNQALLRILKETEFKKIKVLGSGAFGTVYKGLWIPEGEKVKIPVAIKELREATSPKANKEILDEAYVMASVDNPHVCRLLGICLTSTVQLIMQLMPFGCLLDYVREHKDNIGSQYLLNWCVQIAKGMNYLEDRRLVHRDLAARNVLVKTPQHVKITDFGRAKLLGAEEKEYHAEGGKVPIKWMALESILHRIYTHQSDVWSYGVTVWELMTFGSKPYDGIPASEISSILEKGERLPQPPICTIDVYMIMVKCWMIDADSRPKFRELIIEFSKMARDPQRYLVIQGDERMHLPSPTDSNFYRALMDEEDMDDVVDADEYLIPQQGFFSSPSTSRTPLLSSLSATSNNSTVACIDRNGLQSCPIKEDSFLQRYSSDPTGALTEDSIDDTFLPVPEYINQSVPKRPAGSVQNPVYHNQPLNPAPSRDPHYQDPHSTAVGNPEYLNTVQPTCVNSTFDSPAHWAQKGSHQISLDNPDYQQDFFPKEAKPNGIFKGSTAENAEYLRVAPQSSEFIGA
Summary of the method: as §1

[2] = target: EGFR L858R/T790M/C797S mutant (Homo sapiens (Human), UniProt P00533, C797S/L858R/T790M); test: HotSpot radiometric kinase assay, EGFR L858R/T790M/C797S mutant; conditions: 10 μM ATP
Chain of EGFR L858R/T790M/C797S mutant (P00533 25-1210 T790M/C797S/L858R): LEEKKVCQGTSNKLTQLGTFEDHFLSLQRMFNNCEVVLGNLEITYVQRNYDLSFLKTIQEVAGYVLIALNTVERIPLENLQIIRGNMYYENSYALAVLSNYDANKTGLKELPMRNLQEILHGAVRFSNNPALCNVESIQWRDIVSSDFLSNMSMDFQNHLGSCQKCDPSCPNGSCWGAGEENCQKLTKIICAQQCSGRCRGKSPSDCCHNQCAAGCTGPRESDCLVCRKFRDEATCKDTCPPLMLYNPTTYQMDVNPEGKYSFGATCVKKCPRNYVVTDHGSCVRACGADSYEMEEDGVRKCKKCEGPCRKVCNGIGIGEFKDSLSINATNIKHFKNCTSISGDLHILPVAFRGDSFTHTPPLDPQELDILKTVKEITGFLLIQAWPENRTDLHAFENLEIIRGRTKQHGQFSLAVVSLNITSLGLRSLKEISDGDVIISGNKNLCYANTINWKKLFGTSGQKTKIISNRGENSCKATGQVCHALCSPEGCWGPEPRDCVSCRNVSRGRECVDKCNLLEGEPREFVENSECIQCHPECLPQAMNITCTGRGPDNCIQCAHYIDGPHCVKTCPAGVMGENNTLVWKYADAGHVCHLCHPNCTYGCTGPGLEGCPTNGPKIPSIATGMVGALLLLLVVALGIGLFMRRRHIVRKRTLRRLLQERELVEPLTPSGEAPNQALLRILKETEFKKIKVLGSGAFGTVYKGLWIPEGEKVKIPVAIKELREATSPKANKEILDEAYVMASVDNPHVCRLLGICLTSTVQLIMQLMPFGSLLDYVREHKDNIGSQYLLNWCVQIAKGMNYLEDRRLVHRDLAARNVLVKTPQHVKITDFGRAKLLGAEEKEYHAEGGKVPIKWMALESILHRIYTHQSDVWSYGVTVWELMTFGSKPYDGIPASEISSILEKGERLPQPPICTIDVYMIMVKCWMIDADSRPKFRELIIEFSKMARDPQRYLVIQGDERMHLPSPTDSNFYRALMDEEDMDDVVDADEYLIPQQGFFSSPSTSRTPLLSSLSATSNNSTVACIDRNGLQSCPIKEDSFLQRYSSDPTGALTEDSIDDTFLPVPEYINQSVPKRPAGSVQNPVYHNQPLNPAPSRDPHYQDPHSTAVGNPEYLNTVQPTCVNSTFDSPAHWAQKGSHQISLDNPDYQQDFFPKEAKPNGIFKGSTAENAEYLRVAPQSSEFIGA
Summary of the method: as §1

CLK1 = CLK1 (Homo sapiens (Human), UniProt P49759); test: Inhibition of CLK1 kinase activity evaluated at Nanosyn (ADP-Glo); conditions: ADP-Glo luminescence
Procedure: (§2) Inhibition of CLK, CLK2, CLK3 and CLK4 Kinase Activity Evaluated at Nanosyn
(§3) Kinase protein and substrate were pre-diluted in the HEPES assay buffer (100 mM HEPES, pH 7.5, 0.01% Triton X-100, 0.1% BSA, 5 mM MgCl2, […] DTT, 10 Sodium Orthovanadate, […] Beta-Glycerophosphate) dispensed into 384 well plate (5 μL per well). Control samples (0%-inhibition in the absence of inhibitor, DMSO only) and 100%-inhibition (in the absence of enzyme) were assembled in replicates of six and were used to calculate %-inhibition in the presence of compounds. Test compounds were added to the protein samples by acoustic dispensing (Labcyte Echo550). Concentration of DMSO was equalized to 1% in all samples. Reactions were initiated by addition of ATP by acoustic dispensing (Labcyte Echo550) and incubated according to assay specific incubation time. After incubation. 5 μL of Promega ADP-Glo reagent was added and incubated for 40 minutes. After 40 minutes, 10 uL of Promega kinase detection reagent was added. After 10 min of incubation with Kinase detection reagent, the luminescence was read on microplate reader (Biotek Synergy).

CLK2 = CLK2 (Homo sapiens (Human), UniProt P49760); test: Inhibition of CLK2 kinase activity evaluated at Nanosyn (ADP-Glo); conditions: ADP-Glo luminescence
Chain of CLK2 (P49760 whole entry): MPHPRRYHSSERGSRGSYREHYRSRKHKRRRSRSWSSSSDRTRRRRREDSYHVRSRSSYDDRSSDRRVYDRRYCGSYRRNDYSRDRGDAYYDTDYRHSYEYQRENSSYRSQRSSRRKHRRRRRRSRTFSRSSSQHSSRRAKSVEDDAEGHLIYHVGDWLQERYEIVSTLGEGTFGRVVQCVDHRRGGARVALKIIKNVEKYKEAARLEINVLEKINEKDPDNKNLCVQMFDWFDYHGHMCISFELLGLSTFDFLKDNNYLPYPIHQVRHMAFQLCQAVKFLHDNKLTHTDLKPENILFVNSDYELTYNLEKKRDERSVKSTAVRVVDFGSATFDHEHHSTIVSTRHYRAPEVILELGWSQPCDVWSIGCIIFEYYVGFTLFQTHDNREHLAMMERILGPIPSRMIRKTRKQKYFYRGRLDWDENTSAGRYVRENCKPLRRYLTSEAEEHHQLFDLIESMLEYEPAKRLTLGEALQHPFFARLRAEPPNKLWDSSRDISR
Procedure: as §2, §3

CLK3 = CLK3 (Homo sapiens (Human), UniProt P49761); test: Inhibition of CLK3 kinase activity evaluated at Nanosyn (ADP-Glo); conditions: ADP-Glo luminescence
Chain of CLK3 (P49761 whole entry): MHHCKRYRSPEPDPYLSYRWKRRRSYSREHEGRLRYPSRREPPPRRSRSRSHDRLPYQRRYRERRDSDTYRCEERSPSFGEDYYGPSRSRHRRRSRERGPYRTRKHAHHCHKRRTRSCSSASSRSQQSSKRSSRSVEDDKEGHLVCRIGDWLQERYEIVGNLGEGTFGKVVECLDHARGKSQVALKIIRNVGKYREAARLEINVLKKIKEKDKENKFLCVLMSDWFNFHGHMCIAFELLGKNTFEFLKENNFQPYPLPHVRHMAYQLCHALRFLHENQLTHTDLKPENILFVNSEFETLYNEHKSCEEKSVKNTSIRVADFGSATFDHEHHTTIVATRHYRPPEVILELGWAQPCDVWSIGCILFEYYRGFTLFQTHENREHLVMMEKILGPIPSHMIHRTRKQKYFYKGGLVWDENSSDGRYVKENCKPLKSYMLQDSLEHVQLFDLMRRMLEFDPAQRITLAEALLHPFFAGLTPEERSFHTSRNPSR
Procedure: as §2, §3

CLK4 = CLK4 (Homo sapiens (Human), UniProt Q9HAZ1); test: Inhibition of CLK4 kinase activity evaluated at Nanosyn (ADP-Glo); conditions: ADP-Glo luminescence
Chain of CLK4 (Q9HAZ1 whole entry): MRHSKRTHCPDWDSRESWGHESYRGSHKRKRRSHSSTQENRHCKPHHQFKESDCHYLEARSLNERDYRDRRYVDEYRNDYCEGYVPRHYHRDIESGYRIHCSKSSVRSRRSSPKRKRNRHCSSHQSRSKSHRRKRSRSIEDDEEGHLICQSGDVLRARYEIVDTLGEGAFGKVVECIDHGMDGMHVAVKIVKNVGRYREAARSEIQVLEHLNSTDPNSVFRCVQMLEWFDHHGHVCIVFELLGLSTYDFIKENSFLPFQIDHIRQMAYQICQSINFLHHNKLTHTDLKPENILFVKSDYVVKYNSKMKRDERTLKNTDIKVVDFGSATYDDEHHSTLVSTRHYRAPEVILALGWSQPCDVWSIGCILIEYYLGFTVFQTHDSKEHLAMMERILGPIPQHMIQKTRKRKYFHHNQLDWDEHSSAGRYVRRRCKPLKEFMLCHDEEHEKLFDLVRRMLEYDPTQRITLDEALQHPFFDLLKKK
Procedure: as §2, §3

Row | SMILES | IC50 (EGFR WT) | IC50 (EGFR (D770_N771insNPG)) | IC50 (EGFR Δ746-750 mutant) | IC50 [1] | IC50 (EGFR L858R mutant) | IC50 (EGFR L858R/T790M mutant) | IC50 [2] | IC50 (CLK1) | IC50 (CLK2) | IC50 (CLK3) | IC50 (CLK4)
1 | C[C@@H](C#N)Oc1nn(CCO)c2c1/C=C/c1n[nH]c3cc(F)c(cc13)-c1cnn(C)c1O[C@@H](C)CN(C)C2 [Ex. 269, (2S)-2-{[(10S,17E)-19-fluoro-14-(2-hydroxyethyl)-8,10,12-trimethyl-2,10,11,12,13,14-hexahydro-8H-3,5-ethenotripyrazolo[3,4-f:3′,4′-j:4″,3″-n][1,4]oxazacyclopentadecin-16-yl]oxy}propanenitrile] | 20.3 nM | 102 nM | 5.25 nM | 2.56 nM | 8.53 nM | 1.82 nM | 0.67 nM | 0.94 nM | 0.32 nM | 238 nM | 1.76 nM
2 | Cc1nn(C)c2c1/C=C/c1n[nH]c3ccc(cc13)-c1cnn(C)c1OCCN(C)C2 [Example 43, (17E)-8,12,14,16-tetramethyl-2,10,11,12,13,14-hexahydro-8H-3,5-ethenotripyrazolo[3,4-f:3′,4′-j:4″,3″- n][1,4]oxazacyclopentadecine] | 543 nM | 541 nM | 74.8 nM | 133 nM | 144 nM | 13.5 nM | 34.5 nM | 0.1 nM | 0.14 nM | 236 nM | 0.25 nM
3 | CCN1Cc2nn(C)c(C)c2/C=C/c2n[nH]c3ccc(cc23)-c2cnn(C)c2O[C@@H](C)C1 [Example 59, (10S,17E)-12-ethyl-8,10,15,16-tetramethyl-2,10,11,12,13,15-hexahydro-8H-3,5-ethenotripyrazolo[3,4-f:3′,4′-j:4″,3″-n][1,4]oxazacyclopentadecine] | 44.1 nM | 127 nM | 18.6 nM | 2.42 nM | 7.63 nM | 0.7 nM | 1.02 nM | 0.82 nM | 2.13 nM | 541 nM | 2.03 nM
4 | Cc1nn(C)c2c1/C=C/c1n[nH]c3ccc(cc13)-c1cnn(C)c1OCCN1CC[C@@H](O2)C1=O [Example 109, (10R,15E)-3,12,14-trimethyl-5,6,9,10,12,18-hexahydro-3H,8H-19,21-etheno-7,10-methanotripyrazolo[3,4-i:3′,4′-m:4″,3″-q][1,8,4]dioxazacyclooctadecin-24-one] | 856 nM | 298 nM | 38 nM | 152 nM | 165 nM | 15.9 nM | 47.1 nM | 0.46 nM | 0.09 nM | 2 nM | 0.85 nM
5 | Cc1nn(C)c2c1/C=C/c1n[nH]c3ccc(cc13)-c1cnn(C)c1O[C@@H]1CCCN(C2)C1 [Example 122, (10R,19E)-8,16,18-trimethyl-2,8,10,11,12,13,15,16-octahydro-3,5-etheno-10,14-methanotripyrazolo[3,4-h:3′,4′-l:4″,3″-p][1,6]oxazacycloheptadecine] | 94.2 nM | 58 nM | 7.45 nM | 6.79 nM | 11.9 nM | 1.46 nM | 2.09 nM | 0.27 nM | 0.15 nM | 21.2 nM | 0.6 nM
6 | Cc1nn(C[C@H](C)O)c2c1/C=C/c1n[nH]c3ccc(cc13)-c1cnn(C)c1O[C@@H](C)CN(C)C2 [Example 123, (2S)-1-[(10S,17E)-8,10,12,16-tetramethyl-2,8,10,11,12,13-hexahydro-14H-3,5-ethenotripyrazolo[3,4f:3′,4′-j:4″,3″-n][1,4]oxazacyclopentadecin-14-yl]propan-2-ol] | 11.4 nM | 10.1 nM | 1.3 nM | 0.8 nM | 1.5 nM | 0.33 nM | 0.75 nM | 0.17 nM | 0.1 nM | 171 nM | 0.45 nM
7 | Cc1c2c(nn1C[C@H](C)O)CN(C)C[C@H](C)Oc1c(cnn1C)-c1ccc3[nH]nc(c3c1)/C=C/2 [Example 124, (2S)-1-[(10S,17E)-8,10,12,16-tetramethyl-2,8,10,11,12,13-hexahydro-15H-3,5-ethenotripyrazolo[3,4-f:3′,4′-j:4″,3″-n][1,4]oxazacyclopentadecin-15-yl]propan-2-ol] | 168 nM | 140 nM | 18.3 nM | 13.9 nM | 18.3 nM | 3.32 nM | 2.32 nM | 0.15 nM | 0.29 nM | 186 nM | 0.37 nM

Compounds with a lower IC50 (EGFR WT), results first:

Row | IC50 (EGFR WT) | IC50 (EGFR (D770_N771insNPG)) | IC50 (EGFR Δ746-750 mutant) | IC50 [1] | IC50 (EGFR L858R mutant) | IC50 (EGFR L858R/T790M mutant) | IC50 [2] | IC50 (CLK1) | IC50 (CLK2) | IC50 (CLK3) | IC50 (CLK4) | SMILES
8 | 8.28 nM | 1.12 nM | 0.61 nM | 2.75 nM | 1.31 nM | 0.21 nM | 0.98 nM | 0.17 nM | 0.04 nM | 0.19 nM | 0.5 nM | CN1CCC(c2ccc3c(c2)O[C@@H]2CCN(CCOc4c(cnn4C)-c4ccc5[nH]nc(c5c4)/C=C/3)C2=O)CC1 [Example 112, (10R,16E)-3-methyl-13-(1-methylpiperidin-4-yl)-3,5,6,9,10,19-hexahydro-8H-20,22-etheno-7,10-methanodipyrazolo[3,4-i:4′,3′-m][1,8,5]benzodioxazacyclooctadecin-25-one]
9 | 7.91 nM | 30.5 nM | 2.01 nM | 1.32 nM | 4.35 nM | 1.04 nM | 0.52 nM | 0.57 nM | 0.18 nM | 45.1 nM | 1.22 nM | C[C@H](C#N)Oc1nn(CCO)c2c1/C=C/c1n[nH]c3cc(F)c(cc13)-c1cnn(C)c1O[C@@H](C)CN(C)C2 [Ex. 268, (2R)-2-{[(10S,17E)-19-fluoro-14-(2-hydroxyethyl)-8,10,12-trimethyl-2,10,11,12,13,14-hexahydro-8H-3,5-ethenotripyrazolo[3,4-f:3′,4′-j:4″,3″-n][1,4]oxazacyclopentadecin-16-yl]oxy}propanenitrile]
10 | 6.19 nM | 9.21 nM | 1.08 nM | 1.96 nM | 1.23 nM | 0.29 nM | 0.17 nM | 0.21 nM | 0.06 nM | 21.4 nM | 0.76 nM | Cc1nn(CCO)c2c1/C=C/c1n[nH]c3ccc(cc13)-c1cnn(C)c1O[C@@H](C)CN(C)C2 [Example 61, 2-[(10S,17E)-8,10,12,16-tetramethyl-2,8,10,11,12,13-hexahydro-14H-3,5-ethenotripyrazolo[3,4-f:3′,4′-j:4″,3″- n][1,4]oxazacyclopentadecin-14-yl]ethan-1-ol]
11 | 3.98 nM | 18.5 nM | 1.06 nM | 2.85 nM | 0.58 nM | 0.38 nM | 2.71 nM | 0.11 nM | 0.04 nM | 10.9 nM | 0.4 nM | Cc1nn(CCO)c2c1/C=C/c1n[nH]c3cc(F)c(cc13)-c1cnn(C)c1O[C@@H](C)CN(C)C2 [Example 116, 2-[(10S,17E)-19-fluoro-8,10,12,16-tetramethyl-2,8,10,11,12,13-hexahydro-14H-3,5-ethenotripyrazolo[3,4-f:3′,4′-j:4″,3″-n][1,4]oxazacyclopentadecin-14-yl]ethan-1-ol]
12 | 0.38 nM | 0.91 nM | 0.17 nM | 0.92 nM | 0.1 nM | 0.11 nM | 0.98 nM | 0.23 nM | 0.12 nM | 20.9 nM | 0.46 nM | Cc1nn(CCO)c2c1/C=C/c1n[nH]c3ccc(cc13)-c1cnn(C)c1O[C@@H](C)CN(C(C)C)C2 [Example 114, 2-[(10S,17E)-8,10,16-trimethyl-12-(propan-2-yl)-2,8,10,11,12,13-hexahydro-14H-3,5-ethenotripyrazolo[3,4-f:3′,4′-j:4″,3″- n][1,4]oxazacyclopentadecin-14-yl]ethan-1-ol]
